Legend:
HPAFII cells = assay: cell colony formation assay (FIG. 1); type: cell-based, human
Protocol: (§1) FIG. 1(a) is a photograph showing a HPAFII cell colony formation assay in the presence of LGK974 at two concentrations (300 nM and 1 μM). 1300 cells were seeded into media with indicated treatment and the media were replaced every 5 days until crystal violet staining at day 14. […] FIG. 1(b) is a photograph showing PK1 (having a functional RNF43 protein) and HPAFII (having a nonfunctional RNF43 protein) cell colony formation assays in the presence of 1 μM LGK974 alone or together with daily addition of 10% Wnt3a conditioned media (CM).

PK1 = assay: cell colony formation assay (FIG. 1); type: cell-based, human; conditions: PK1 (RNF43 wild-type); 1 μM LGK974; 10 day assay
Protocol: as §1

[1] = test system: STF Wnt reporter, YAPC-STF cells; assay: SuperTOPFlash (STF) luciferase reporter assay; type: cell-based, human; conditions: absence of exogenous Wnt3a, LGK974 or IWP-2
Protocol: For the luciferase reporter assay, YAPC-STF reporter cells were transfected with siRNA and treated with Wnt3a conditioned medium or compound where applicable. STF luciferase assays were performed using BrightGlo Luciferase Assay kits (Promega) according to the manufacturer's instructions.
To construct pancreatic cell lines expressing STF reporter, HEK293 cells were grown in medium recommended by ATCC supplemented with 10% FBS. Retrovirus or lentivirus was produced from HEK293 cells by standard virus packaging procedure using FuGENE 6 (Roche) transfection reagent. Pancreatic cell lines expressing STF reporter, RNF43 constructs, or DOX-inducible β-catenin shRNA were generated by viral infection and drug selection.
Depletion of RNF43 induces Dvl phosphorylation and β-catenin stabilization. […] RNF43 siRNA-induced STF activity in the absence of exogenous Wnt3a is inhibited by LGK974 and a previously known Porcupine inhibitor IWP-2. Chen B et al. (2009) Nat. Chem. Biol. 5(2):100-7. See, FIG. 3(b), showing that this activity is dependent on the expression of endogenous Wnt proteins.

Capan-2 xenografts = assay: PDAC xenograft model, in vivo efficacy and pharmacodynamics; design: species or system mice
Source text: (§2) To analyze the role of Wnt pathway activation in maintenance of RNF43 mutant pancreatic tumors in vivo, we utilized two PDAC xenograft models (HPAFII and Capan-2).
(§3) For in vivo efficacy and pharmacodynamic studies, cells were harvested at a density of 95-110% confluency. 10 million cells (HPAFII) or 3 million cells (Capan-2) mixed 50:50 with BD matrigel matrix basement membrane (Matrigel) (BD Biosciences) were subcutaneously implanted into the upper right supra-axillary region of nu/nu (Harlan) (HPAFII) or scid.bg (Harlan) (Capan-2) mice. Tumors were monitored twice weekly by calipering and tumor volumes (TV) were calculated using the ellipsoid formula: TV(mm^3)=((l×w^2)×3.14159))/6. Xenograft tumor-bearing mice were randomized to treatment groups (n=8 per group) either 14 days post tumor implant (Capan-2), when the mean tumor volume reached 223 mm^3 (range 200-250 mm^3) or 11 days post implant (HPAFII), when the mean tumor volume reached 341 mm^3 (range 272-418 mm^3). Mice were treated by oral gavage (p.o.) twice daily (BID) at a dosing volume of 10 mL/kg with either vehicle (0.5% methylcelluose (MC)/0.5% Tween 80) or a 0.65 mg/mL suspension of the fumarate salt form of LGK974 (LGK974-AE-4, free base molecular weight conversion factor 1.293) in 0.5% MC/0.5% Tween 80. In vivo doses are reported as free base equivalents. Following treatment for 14 days (HPAFII) or 35 days (Capan-2), anti-tumor activity was reported as percent treatment/control (% T/C) or % Regression (% REG) values. Anti-tumor activity was calculated using the following formula: % T/C=100 ΔΔTt/ΔCt if ΔTt≧0; or % REG=100 ΔΔTt/T0 if ΔTt<0; where: T0=mean tumor volume (TV) of the drug-treated group on the day of randomization; Tt=mean TV of the drug-treated group at study end; […]; Ct=mean TV of the control group on the final day of the study; C0=mean TV of the control group on the day of randomization; and ΔCt=C0−Ct*% T/C values in the range of 100 to 42% are interpreted to have no anti-tumor activity; % T/C values 42% and >10% are interpreted to have anti-tumor activity, % T/C values 10% or % REG≧-10% are interpreted to be tumor stasis. % REG values <-10% are interpreted as regressions. Separate, parallel cohorts of animals (n=3 per treatment and time point) were treated with vehicle or LGK974 as above to obtain tumor tissue for ex vivo analysis of pharmacodynamic markers.
(§4) Furthermore, treatment of mice bearing Capan-2 xenografts with 5 mg/kg LGK974, p.o. BID for 35 days achieved tumor stasis (T/C=5%). Consistent with the mechanism of action of LGK974, expression of the β-catenin target gene, AXIN2, was decreased in treated HPAFII and Capan-2 xenografts.

HPAFII xenografts = assay: as above; design: species or system mice
Source text: as §2, §3, §4

Axin2, YAPC = assay: Axin2 qPCR assay (pathway inhibition); type: cell-based, human
Protocol: (§5) For reverse transcription and quantitative PCR (qPCR), total RNA was extracted from cells or tumors using the RNeasy Plus Mini Kit (Qiagen). 1 μg of RNA were reverse transcribed with Taqman Reverse Transcription Reagents (Applied Biosystems) according to the manufacturer's instruction. Quantitative PCR was performed in 12 μl reactions consisting of 0.6 μl of 20× Taqman probe and PCR primer mix, 6 μl 2× Taqman FAST Advanced Master Mix (Applied Biosystems), and 5.4 μl diluted cDNA template. The thermocycling conditions utilized were 20 seconds at 95° C., followed by 40 cycles of 1 second at 95° C. and 20 seconds at 60° C. All experiments were performed in quadruplicates. Gene expression analysis was performed using the comparative ΔΔCT method and normalized with the housekeeping gene GUSB or 18S. The Taqman probes were purchased from Applied Biosystems.
Consistent with this observation, treatment of Porcupine inhibitor IWP2 or LGK974 increased the cell surface level of Frizzled and decreased the mRNA levels of AXIN2 and RNF43. See, FIG. 4(b). […] YAPC cells were treated with 3 μM of IWP-2 or 1 μM of LGK974, and subjected to flowcytometry analysis for membrane Frizzled expression.

[2] = test system: AXIN2, pancreatic cancer cell lines; assay: AXIN2 expression across pancreatic cancer cell line panel; type: cell-based, human; conditions: 22 of 29 cell lines
Protocol: as §5

Cc1cc(-c2ncc(CC(=O)Nc3ccc(-c4cnccn4)cn3)cc2C)ccn1 [LGK974, 2-[5-methyl-6-(2-methylpyridin-4-yl)pyridin-3-yl]-N-[5-(pyrazin-2-yl)pyridin-2-yl]acetamide]
colony formation (HPAFII cells; HPAFII (RNF43 mutant), 1 μM LGK974 alone): inhibited | colony formation (HPAFII cells; HPAFII, 300 nM and 1 μM LGK974, crystal violet staining at day 14): inhibits colony formation | colony formation, inhibition with exogenous Wnt3a (HPAFII cells; HPAFII, 1 μM LGK974 with daily addition of 10% Wnt3a conditioned media): partially rescued | colony formation (PK1): no sensitivity | RNF43 siRNA-induced STF activity [1]: inhibited | cell cycle arrest and differentiation within the xenograft tumors (Capan-2 xenografts; Capan-2 xenograft tumors): induced cell cycle arrest and differentiation | T/C (tumor stasis) (Capan-2 xenografts; mice bearing Capan-2 xenografts, 5 mg/kg p.o. BID for 35 days): 5% | expression of the β-catenin target gene AXIN2 in xenografts (Capan-2 xenografts; treated Capan-2 xenografts): decreased | cell cycle arrest and differentiation within the xenograft tumors (HPAFII xenografts; HPAFII xenograft tumors): induced cell cycle arrest and differentiation | T/C (tumor growth in treated relative to vehicle) (HPAFII xenografts; mice bearing HPAFII xenografts, 5 mg/kg p.o. BID for 14 days): 33% | expression of the β-catenin target gene AXIN2 in xenografts (HPAFII xenografts; treated HPAFII xenografts): decreased | Pathway inhibition in Axin2 qPCR assay (Axin2, YAPC; YAPC): Yes | mRNA level of AXIN2 (Axin2, YAPC; YAPC cells, 1 μM of LGK974): decreased | share of pancreatic cancer cell lines with decreased expression of AXIN2 [2]: 76%

Reference: patent US20170306409A1, “CANCER PATIENT SELECTION FOR ADMINISTRATION OF WNT SIGNALING INHIBITORS USING RNF43 MUTATION STATUS” (NOVARTIS AG, priority 2012, published 2017)
